For 11 compounds, GI50 and TGI results are on record in PubChem BioAssay (NCI).

“And” between values parts separate entries of the source, which are not always exact repeats. Equal values may be shown once.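 Briefly, cells in 96-well plates were exposed to five compound concentrations for 48 h, and endpoints were estimated by linear interpolation. GI50 marks 50% less growth. TGI denotes the concentration required for complete inhibition of growth.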

Test systems include IGROV1 ovarian; NCI-H23 lung; NCI-H460 lung; NCI-H522 lung; SF-268 CNS; SW-620 colon; T-47D breast; UACC-257 melanoma.
Common to all, as to experiment: NCI-60 cell line screen, 48 h

Consider `Cc1nnc(-c2ccc(-c3nc4ccccc4o3)cc2)o1`, for which the GI50 in the experiment with IGROV1 ovarian was more than 100 µM; in the experiment on NCI-H23 lung, more than 100 µM; in the experiment with NCI-H460 lung, 25.9 µM; in the experiment with NCI-H522 lung, more than 100 µM; in the experiment with SF-268 CNS it was 28.6 µM; in the experiment with SW-620 colon, more than 100 µM. The GI50 in the experiment with T-47D breast is more than 100 µM; in the experiment on UACC-257 melanoma it was 34.7 µM. The TGI is more than 100 µM in the experiment with IGROV1 ovarian; more than 100 µM in the experiment with NCI-H23 lung; more than 100 µM in the experiment with NCI-H460 lung; more than 100 µM in the experiment on NCI-H522 lung; 92.2 µM with SF-268 CNS; more than 100 µM in the experiment on SW-620 colon. The values for the TGI in the experiment with T-47D breast and in the experiment on UACC-257 melanoma were more than 100 µM and 90.7 µM, respectively.

In the case of `O=C1c2ccccc2-c2c1c1ccccc1c(=O)n2-c1ccccc1`, the TGI in the experiment with IGROV1 ovarian was more than 52.7 µM; in the experiment with NCI-H23 lung, 24 µM; in the experiment on NCI-H460 lung, 36.6 µM; in the experiment with NCI-H522 lung it was more than 100 µM; in the experiment with SF-268 CNS, 52.7 µM; in the experiment on SW-620 colon, more than 100 µM. For the same compound, the results for the TGI with T-47D breast and in the experiment on UACC-257 melanoma were 46.7 µM and more than 100 µM, respectively.

Take `CO[C@H](C(=O)O)[C@@H]1Cc2cc3cc(OC4CC(OC5CC(O)C(O)C(C)O5)C(O)C(C)O4)c(C)c(O)c3c(O)c2C(=O)[C@H]1OC1CC(OC2CC(OC3CC(C)(O)C(O)C(C)O3)C(O)C(C)O2)C(O)C(C)O1` (some centres undefined): the GI50 with IGROV1 ovarian was 0.231 µM; with NCI-H23 lung, 0.211 µM; in the experiment on NCI-H460 lung, 0.131 µM; with NCI-H522 lung, 0.134 µM; in the experiment with SF-268 CNS it was 0.283 µM; with SW-620 colon, 0.245 µM. In addition, the figures for the GI50 in the experiment on T-47D breast and in the experiment with UACC-257 melanoma were 0.302 µM and 0.38 µM, respectively. In addition, the TGI in the experiment on IGROV1 ovarian is more than 32.5 µM; with NCI-H23 lung, 2.67 µM; in the experiment with NCI-H460 lung it was more than 32.5 µM; in the experiment on NCI-H522 lung, more than 32.5 µM; in the experiment with SF-268 CNS, more than 32.5 µM; in the experiment with SW-620 colon, more than 32.5 µM. The TGI in the experiment on T-47D breast and with UACC-257 melanoma was more than 32.5 µM each time.

As to `CN(C)CCNc1nc2ccccc2c2c(=O)c3ccccc3sc12`, the GI50 in the experiment with IGROV1 ovarian is 1.81 µM; in the experiment on NCI-H23 lung, 1.68 µM; in the experiment with NCI-H460 lung, 1.62 µM; in the experiment on NCI-H522 lung it was 1.7 µM; in the experiment on SF-268 CNS it was 2.1 µM; in the experiment with SW-620 colon, 1.39 µM. Moreover, the GI50 in the experiment with T-47D breast is 4.91 µM; in the experiment on UACC-257 melanoma it was 1.76 µM. For the same compound, the TGI with IGROV1 ovarian came out at 4.53 µM; in the experiment with NCI-H23 lung, 4.86 µM; in the experiment with NCI-H460 lung, 3.7 µM; in the experiment on NCI-H522 lung, 3.41 µM; in the experiment on SF-268 CNS, 8.82 µM; in the experiment with SW-620 colon it was 3.12 µM. The TGI came to 22.9 µM with T-47D breast and 3.53 µM in the experiment with UACC-257 melanoma.

On to `N#Cc1c2c(c(-c3cccs3)n(C3OC(CO)C(O)C(O)C3O)c1=S)CCc1ccccc1-2` (centres undefined), for which the TGI in the experiment on IGROV1 ovarian, in the experiment with NCI-H23 lung, in the experiment with NCI-H460 lung, in the experiment on NCI-H522 lung, in the experiment on SF-268 CNS and in the experiment on SW-620 colon was more than 100 µM each time. Besides, the TGI in the experiment on T-47D breast and in the experiment on UACC-257 melanoma was more than 100 µM in each case. Besides, the GI50 in the experiment with NCI-H23 lung is 13.5 µM and > 39.3 µM; in the experiment on NCI-H460 lung it was 37.8 µM and > 100 µM; in the experiment on NCI-H522 lung it was 12.8 µM and 3.62 µM; in the experiment on SF-268 CNS, more than 100 µM; with T-47D breast, > 25.1 µM and 7.83 µM.

For the compound `C[N+](C)([O-])CCCNc1ccnc2cccc([N+](=O)[O-])c12`, the TGI is more than 100 µM in the experiment with IGROV1 ovarian; more than 100 µM in the experiment with NCI-H23 lung; 31.3 µM with NCI-H460 lung; 28 µM in the experiment with NCI-H522 lung; 97.5 µM with SF-268 CNS; more than 100 µM in the experiment on SW-620 colon. The TGI in the experiment with T-47D breast and in the experiment with UACC-257 melanoma was more than 100 µM in each case.

Take `ClCC#CCSc1ncnc2c1ncn2CC#CCCl`: the GI50 is 1.03 µM with IGROV1 ovarian; 1.49 µM in the experiment with NCI-H23 lung; 2.15 µM in the experiment on NCI-H460 lung; 1.14 µM in the experiment on NCI-H522 lung; 1.33 µM in the experiment with SF-268 CNS; 2.17 µM in the experiment with SW-620 colon. Further, the values for the GI50 in the experiment with T-47D breast and in the experiment with UACC-257 melanoma were 1.33 µM and 1.36 µM, respectively. Besides, the TGI was 3.34 µM in the experiment with IGROV1 ovarian; 3.46 µM with NCI-H23 lung; 6.77 µM in the experiment with NCI-H460 lung; 2.73 µM in the experiment with NCI-H522 lung; 3.09 µM in the experiment with SF-268 CNS; 4.79 µM in the experiment on SW-620 colon. Further, the TGI in the experiment with T-47D breast came to 2.68 µM; in the experiment with UACC-257 melanoma, 3.49 µM.

On to `O=[N+]([O-])c1cc(F)c2cccnc2c1O`, for which the GI50 with IGROV1 ovarian was 2.5 µM; with NCI-H23 lung it was 7.73 µM; in the experiment with NCI-H460 lung, 3.83 µM; in the experiment on NCI-H522 lung it was 4.01 µM; with SF-268 CNS it was 6.21 µM; in the experiment on SW-620 colon it was 3.44 µM. Besides, the GI50 in the experiment with T-47D breast is 21.2 µM; in the experiment on UACC-257 melanoma it was 15.5 µM. For the same compound, the TGI was 14.7 µM in the experiment with IGROV1 ovarian; more than 100 µM in the experiment with NCI-H23 lung; 30.5 µM in the experiment with NCI-H460 lung; 26 µM with NCI-H522 lung; more than 100 µM in the experiment on SF-268 CNS; more than 100 µM with SW-620 colon. Besides, the TGI in the experiment with T-47D breast is more than 100 µM; with UACC-257 melanoma it was 58.8 µM.

On to `N#Cc1cccc(OCc2ccccc2COc2cccc(C#N)c2)c1`, for which the GI50 in the experiment on IGROV1 ovarian was more than 100 µM; in the experiment with NCI-H23 lung it was 36.7 µM; with NCI-H460 lung, 40.8 µM; in the experiment with NCI-H522 lung it was 98.1 µM; in the experiment with SF-268 CNS, 25 µM; in the experiment with SW-620 colon, more than 100 µM. The GI50 in the experiment with T-47D breast is 55.6 µM; with UACC-257 melanoma, more than 100 µM. The TGI in the experiment with IGROV1 ovarian is more than 100 µM; with NCI-H23 lung, more than 100 µM; in the experiment on NCI-H460 lung, more than 100 µM; in the experiment with NCI-H522 lung it was more than 100 µM; in the experiment on SF-268 CNS, 61.2 µM; in the experiment on SW-620 colon, more than 100 µM. Besides, the TGI with T-47D breast and with UACC-257 melanoma was more than 100 µM in each case.

On to `O=C(c1ccccc1)C1C(C(=O)c2ccccc2)C(c2ccccc2)N(c2ccccc2)C1c1ccccc1` (centres undefined), for which the TGI with IGROV1 ovarian, with NCI-H23 lung, in the experiment on NCI-H460 lung, in the experiment on NCI-H522 lung, in the experiment with SF-268 CNS and with SW-620 colon was more than 100 µM each time. Also, the TGI in the experiment on T-47D breast and with UACC-257 melanoma was more than 100 µM in each case.

Turning to `C#CCN(Cc1nc2cc(C(F)(F)F)ccc2nc1-c1ccccc1)c1ccc(F)c(F)c1`, the GI50 was 68.1 µM with IGROV1 ovarian; 94.3 µM in the experiment with NCI-H23 lung; 26.5 µM in the experiment with NCI-H460 lung; 27.5 µM in the experiment on NCI-H522 lung; 22.1 µM in the experiment on SF-268 CNS; 36 µM in the experiment with SW-620 colon. In addition, the GI50 with T-47D breast is 63.5 µM; in the experiment on UACC-257 melanoma, 40.5 µM. Also, the TGI in the experiment with IGROV1 ovarian, in the experiment with NCI-H23 lung, in the experiment on NCI-H460 lung, in the experiment on NCI-H522 lung, with SF-268 CNS and in the experiment on SW-620 colon was more than 100 µM each time. Moreover, the TGI was more than 100 µM in the experiment on T-47D breast and 64.9 µM in the experiment on UACC-257 melanoma.
